Some test systems named below: HT29 colon; IGROV1 ovarian; MOLT-4 leukemia; OVCAR-5 ovarian; OVCAR-8 ovarian; SF-268 CNS; SF-539 CNS; SW-620 colon; TK-10 renal; K-562 leukemia.
What all share (experiment): DTP human tumour cell line panel, 48 h

Data on 12 molecules can be found in PubChem BioAssay (NCI).

The structures appear in SMILES notation.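 In this assay, cells in 96-well plates receive the compound at five concentrations for 48 hours. Endpoints are linearly interpolated between the surrounding concentrations. GI50 is the concentration that inhibits growth by half. TGI: total growth inhibition.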 A value given as a limit tells only on which side of the number the result lay.

The TGI is the concentration giving total growth inhibition. A high value points to less potent growth arrest. Consider `CC(=O)NC1=NC(=O)/C(=C/c2ccc(Cl)cc2Cl)N1C`, for which the TGI with HT29 colon was more than 100 µM; with IGROV1 ovarian, more than 100 µM; with MOLT-4 leukemia it was 81.4 µM; in the test on OVCAR-5 ovarian, more than 100 µM; in the test on OVCAR-8 ovarian it was more than 100 µM; in the test on SF-268 CNS, more than 100 µM. Also, the concentration for total growth inhibition (TGI) in the test on SF-539 CNS, with SW-620 colon and in the test with TK-10 renal was more than 100 µM in each case.

Regarding `CC(C)CCC[C@@H](C)C1CCC2[C@@H]3CC=C4C[C@@H](OC(=O)CCC(=O)NCC[N+](C)(C)CCCS(=O)(=O)[O-])CC[C@]4(C)C3CC[C@@]21C` (stereo partly specified), the TGI was 80.3 µM in the test with HT29 colon; 37.6 µM with K-562 leukemia; 39.7 µM with MOLT-4 leukemia; 35 µM in the test on OVCAR-8 ovarian; 39.7 µM in the test on SF-268 CNS; 31.4 µM with SF-539 CNS. In the test with SW-620 colon, this molecule displayed a TGI of 33.8 µM.

A word on the GI50: it is the concentration that inhibits growth by half. For `CCCCC#Cc1c(I)n(C2OC(CO[Si](C)(C)C(C)(C)C)C3OC(C)(C)OC32)c(=O)[nH]c1=O` (stereo unspecified), the GI50 in the test with HT29 colon was 8.21 µM; with IGROV1 ovarian it was 3.32 µM; in the test with K-562 leukemia it was 2.02 µM; in the test on MOLT-4 leukemia it was 1.77 µM; in the test on OVCAR-5 ovarian, 14.4 µM; in the test with OVCAR-8 ovarian, 3.73 µM. For the same molecule, the GI50 in the test with SF-268 CNS is 10.3 µM; with SW-620 colon, 1.8 µM; in the test with TK-10 renal it was 4.32 µM. The TGI is 22.1 µM in the test with HT29 colon; 15.4 µM in the test with IGROV1 ovarian; 5.02 µM in the test on K-562 leukemia; 4.34 µM with MOLT-4 leukemia; 27.9 µM in the test on OVCAR-5 ovarian; 15.9 µM in the test with OVCAR-8 ovarian. Further, the TGI in the test with SF-268 CNS came out at 22.4 µM; with SW-620 colon it was 4.15 µM; in the test with TK-10 renal, 16.8 µM.

Regarding `CCCCCCCCOCC(O)COC` (stereo unspecified), the TGI with HT29 colon, in the test on IGROV1 ovarian, in the test on K-562 leukemia, in the test on MOLT-4 leukemia, with OVCAR-5 ovarian and in the test on OVCAR-8 ovarian was more than 100 µM throughout. In addition, the TGI with SF-268 CNS, in the test with SW-620 colon and in the test on TK-10 renal was more than 100 µM in each case.

Consider `Nc1ccc(Cl)cc1.Nc1ccc(Cl)cc1.Nc1ccc(Cl)cc1.O=C([O-])C(=O)[O-].O=C([O-])C(=O)[O-].[H+].[Ru+5]`, for which the TGI in the test on HT29 colon, with IGROV1 ovarian, with K-562 leukemia, with MOLT-4 leukemia, with OVCAR-8 ovarian and in the test with SF-268 CNS was more than 100 µM throughout. The TGI in the test with SF-539 CNS, with SW-620 colon and with TK-10 renal was more than 100 µM throughout. Further, the GI50 is more than 100 µM in the test with IGROV1 ovarian; less than 0.0169 µM with K-562 leukemia; 1.2 µM in the test on MOLT-4 leukemia; more than 100 µM in the test on SF-268 CNS; 0.352 µM in the test on SF-539 CNS; 0.187 µM with SW-620 colon. The GI50 in the test on TK-10 renal was 3.56 µM.

Take `O=C(CCCCCn1c2ccccc2c2c3c(c4c5ccccc5[nH]c4c21)C(=O)N(O)C3=O)N1CCOCC1`: the GI50 was 2.42 µM with HT29 colon; 2.16 µM in the test with IGROV1 ovarian; 2.11 µM in the test on K-562 leukemia; 1.88 µM with MOLT-4 leukemia; 3.49 µM with OVCAR-5 ovarian; 2.84 µM with OVCAR-8 ovarian. In addition, the results for the GI50 in the test with SW-620 colon and in the test on TK-10 renal were 2.12 µM and 2.03 µM, respectively. Also, the TGI in the test with HT29 colon was 5.88 µM; in the test with IGROV1 ovarian, 4.92 µM; in the test on K-562 leukemia, 6.23 µM; in the test on MOLT-4 leukemia, 5.36 µM; with OVCAR-5 ovarian, more than 100 µM; with OVCAR-8 ovarian, 7.86 µM. Moreover, the TGI turned out to be 6.02 µM in the test on SW-620 colon and 5.72 µM in the test on TK-10 renal.

For the molecule `O=C1c2cc(Br)ccc2-c2c1c1ccccc1c(=O)n2CCCCl`, the GI50 in the test with K-562 leukemia was 34.8 µM; in the test with MOLT-4 leukemia, 3.07 µM; in the test on OVCAR-8 ovarian it was 15.9 µM; in the test on SF-268 CNS, 41.2 µM; with SF-539 CNS it was 25.1 µM; in the test with SW-620 colon, 40.9 µM. Further, the TGI in the test on K-562 leukemia was more than 100 µM; in the test with MOLT-4 leukemia, 8.6 µM; with OVCAR-8 ovarian it was 65.8 µM; in the test with SF-268 CNS it was more than 100 µM; in the test on SF-539 CNS, 68.5 µM; with SW-620 colon, more than 100 µM.

With `Cn1c(=O)c2[nH]c(Nc3ccccc3)nc2n(C)c1=O`, the TGI in the test on HT29 colon, in the test on IGROV1 ovarian, in the test on K-562 leukemia, with MOLT-4 leukemia, with OVCAR-8 ovarian and with SF-268 CNS was more than 10 µM throughout. Moreover, the TGI in the test on SW-620 colon and in the test with TK-10 renal was more than 10 µM throughout.

With `O=C(/C=C/c1ccccc1O)CC(=O)/C=C/c1ccccc1O`, the TGI is 25.7 µM in the test with IGROV1 ovarian; more than 31.6 µM with K-562 leukemia; more than 31.6 µM with MOLT-4 leukemia; 23.3 µM in the test with OVCAR-8 ovarian; 15.7 µM in the test on SF-539 CNS; 24 µM with SW-620 colon. Further, in the test with TK-10 renal, the TGI was more than 100 µM.

Consider `NC(N)=Nc1nc2cc(N)ccc2o1`, for which the TGI in the test on HT29 colon, in the test on K-562 leukemia, with MOLT-4 leukemia, in the test with OVCAR-8 ovarian, in the test on SF-268 CNS and in the test on SF-539 CNS was more than 100 µM throughout. The TGI in the test with SW-620 colon and with TK-10 renal was more than 100 µM each time.

With `COc1ccc(C2CC(c3cccc(Nc4ccnc5cc(Cl)ccc45)c3)=NN2c2ccccc2)cc1` (stereo unspecified), the GI50 with IGROV1 ovarian is 11.6 µM; in the test on K-562 leukemia, 0.492 µM; with MOLT-4 leukemia, 0.432 µM; in the test with OVCAR-5 ovarian it was 11.8 µM; in the test with OVCAR-8 ovarian, 2.85 µM; in the test on SF-268 CNS, 4.19 µM. Further, the GI50 in the test with SF-539 CNS was 1.15 µM; in the test with SW-620 colon it was 0.277 µM; in the test on TK-10 renal it was 3.76 µM. Further, the concentration for total growth inhibition (TGI) with IGROV1 ovarian was more than 100 µM; in the test on K-562 leukemia, 32.3 µM; with MOLT-4 leukemia, 27.6 µM; in the test on OVCAR-5 ovarian, 61.7 µM; in the test with OVCAR-8 ovarian, 38.8 µM; in the test with SF-268 CNS it was more than 100 µM. The TGI turned out to be 3.25 µM in the test with SF-539 CNS, 14.4 µM with SW-620 colon and 97.2 µM in the test on TK-10 renal.

Regarding `Cc1ccc(NC(=O)C(=O)C2C(=O)C3=C(CC2(C)C)NC2C=CC=CC2S3)c(C)c1` (stereo unspecified), the TGI in the test with HT29 colon, in the test on IGROV1 ovarian, with MOLT-4 leukemia, in the test on OVCAR-8 ovarian, in the test on SF-268 CNS and in the test with SF-539 CNS was more than 100 µM each time. The TGI with SW-620 colon and in the test with TK-10 renal was more than 100 µM throughout.
